The values below come from US20250263370A1 (Tay Therapeutics Limited, priority 2022, published 2025).

The nature of data set [1]: Intrinsic clearance in liver microsomes, rat. The data set is classed as in vitro ADME. To be noted: rat, liver microsomes, pH 7.4, rat liver microsomes, Method 1; read-out: Half-Life (T1/2) (min), Rat. In a few lines: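 Compound at 1 μM (0.1–1% DMSO) incubated at 37 °C with mouse or rat liver microsomes (0.5 mg/mL protein) and 1 mM NADPH in PBS pH 7.4; samples taken up to 60 min and quenched in cold acetonitrile. LC-MS/MS of percent remaining gave half-life and CLint; no-NADPH controls run.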

Data set [2] in a line: Plasma stability assay, rat plasma. The data set is classed as in vitro ADME. To be noted: Method 1 (5 μM). In a few lines: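 Compound at 5 μM final (0.5% DMSO) in one protocol or 10 μM (2% DMSO) in the other, incubated in plasma at 37° C.; samples taken 0–120 min and quenched with cold acetonitrile plus internal standard. LC-MS/MS gives percent remaining relative to the 0-min sample.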

With `CNC(=O)c1[nH]c(C(=O)NC2CCC2)cc1O[C@@H](C)c1ccccc1` (stereo in doubt) [Example 101, N^5-cyclobutyl-N^2-methyl-3-(1-phenylethoxy)-1H-pyrrole-2,5-dicarboxamide], the half-life at 1 μM in data set [1] was 58 min. Moreover, the “Plasma Stability (% remaining at 120 minutes), Rat” value in data set [2] is 61%.
